# Earlier results in patent US20140316534A1, “STENT” (Photocure ASA, priority 2011, published 2014).
# System: dysplastic tissue in Barrett's esophagus
# [1] = systemic application, higher doses of 20 mg/kg and 30 mg/kg
compound,measurement,setting,value
"NCC(=O)CCC(=O)O [5-ALA, 5-amino-4-oxo-pentanoic acid]",side effects,systemic application of 20 mg/kg or more,increasing side effects at high dosages
same,sensitivity for detection of dysplastic tissue,[1],increase the sensitivity
same,specificity (rate of false positive fluorescence),[1],poor
